Data set [1] deals with T1, BCRP (Homo sapiens, UniProt Q9UNQ0).
T1 sequence (Q9UNQ0 1-655): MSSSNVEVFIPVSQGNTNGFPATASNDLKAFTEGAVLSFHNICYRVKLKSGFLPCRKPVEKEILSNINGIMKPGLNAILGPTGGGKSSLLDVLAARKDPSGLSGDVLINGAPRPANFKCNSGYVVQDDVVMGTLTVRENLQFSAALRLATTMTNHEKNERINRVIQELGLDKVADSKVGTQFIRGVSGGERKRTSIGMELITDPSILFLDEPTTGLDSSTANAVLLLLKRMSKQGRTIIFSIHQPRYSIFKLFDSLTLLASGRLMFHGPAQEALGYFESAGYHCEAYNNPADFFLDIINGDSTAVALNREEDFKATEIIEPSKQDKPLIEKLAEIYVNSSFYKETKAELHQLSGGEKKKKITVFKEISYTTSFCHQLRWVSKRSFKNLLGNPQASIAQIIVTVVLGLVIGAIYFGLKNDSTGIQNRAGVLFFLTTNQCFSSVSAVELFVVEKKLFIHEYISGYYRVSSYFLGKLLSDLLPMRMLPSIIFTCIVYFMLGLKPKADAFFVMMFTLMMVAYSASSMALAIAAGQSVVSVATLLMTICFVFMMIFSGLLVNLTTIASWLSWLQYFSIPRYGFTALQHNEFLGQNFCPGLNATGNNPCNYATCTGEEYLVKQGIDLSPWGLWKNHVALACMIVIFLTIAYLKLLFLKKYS
The following applies: AZT 1 μM, 120 min.

Data set [2] has as its target BCRP (Homo sapiens, UniProt Q9UNQ0). As to conditions: HCMEC/D3 cells, siRNA for human ABCG2 vs CON.
The subject of a further data set is SO and BDL rats. The experiment in a line: Y-maze test during AZT treatment. The data set is classed as in vivo, rat.
The conditions of data set [3]: cited from earlier work.
The target in another data set is T2, brain BCRP (Rattus norvegicus, UniProt Q80W57).
T2 sequence (Q80W57 1-657): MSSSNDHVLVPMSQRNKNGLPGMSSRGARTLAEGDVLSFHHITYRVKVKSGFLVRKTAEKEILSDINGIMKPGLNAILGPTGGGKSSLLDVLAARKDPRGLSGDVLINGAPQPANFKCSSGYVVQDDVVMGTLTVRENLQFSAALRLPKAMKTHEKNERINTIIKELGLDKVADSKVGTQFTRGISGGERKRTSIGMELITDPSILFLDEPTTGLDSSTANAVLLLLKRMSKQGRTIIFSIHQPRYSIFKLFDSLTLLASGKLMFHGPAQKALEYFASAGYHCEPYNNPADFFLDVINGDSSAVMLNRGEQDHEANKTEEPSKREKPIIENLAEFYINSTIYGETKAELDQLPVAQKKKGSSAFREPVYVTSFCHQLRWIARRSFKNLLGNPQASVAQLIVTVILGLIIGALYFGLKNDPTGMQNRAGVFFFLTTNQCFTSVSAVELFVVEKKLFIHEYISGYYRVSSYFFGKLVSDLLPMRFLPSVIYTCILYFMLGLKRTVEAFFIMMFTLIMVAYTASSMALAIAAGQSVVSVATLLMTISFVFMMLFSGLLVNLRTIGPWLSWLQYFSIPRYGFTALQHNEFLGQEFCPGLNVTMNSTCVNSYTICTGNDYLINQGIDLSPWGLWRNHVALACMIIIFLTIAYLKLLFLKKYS
As to conditions: normal rats.

Data set [4] addresses T1, BCRP. The following applies: not told; cited from earlier work.
The subject of another data set is MDCKII-WT cells. Nature of the data set: Uptake of AZT in MDCKII-WT cells. The data set is classed as in vitro ADME, canine. The following applies: wild-type MDCKII cells, AZT 1 μM, 120 min.

`Cc1cn([C@H]2C[C@H](N=[N+]=[N-])[C@@H](CO)O2)c(=O)[nH]c1=O` [AZT, Zidovudine]: the “uptake of AZT in MDCKII-BCRP cells, % of that in MDCKII-WT cells” value at BCRP [1] is reported as “approximately 50.0%”. Besides, the “uptake of AZT after BCRP siRNA knockdown” value at BCRP [2] is on record as “significantly increased”. Further, in the data set with SO and BDL rats (BDL rats treated with AZT 100 mg/kg every day i.v. compared with SO rats), the “Y-maze percentage of alternation of arm entrance” value is recorded as “significantly decreased”. Also, the “Y-maze total number of entries, effect of AZT treatment” value in the data set with SO and BDL rats (BDL rats, AZT 100 mg/kg every day i.v., day 5 of treatment) is “further enhanced by AZT treatment, but the difference was not significant”. Besides, in the data set with SO and BDL rats (SO rats, AZT 100 mg/kg every day i.v., Y-maze and shuttle box), the “impairment of cognitive function by AZT” value was “did not occur”. In data set [3], the plasma protein binding was 10%.
As for `CO[C@@H]1[C@@H](OC(N)=O)[C@@H](O)[C@H](Oc2ccc3c(O)c(NC(=O)c4ccc(O)c(CC=C(C)C)c4)c(=O)oc3c2C)OC1(C)C` [novobiocin], the “increase in Kin of AZT with novobiocin” value on brain BCRP (cortex, AZT 25 μM + novobiocin 200 μM, 2 min perfusion) is “not significant”.
As to `CC(C)(C)NC(=O)[C@@H]1C[C@@H]2CCCC[C@@H]2CN1C[C@@H](O)[C@H](Cc1ccccc1)NC(=O)[C@H](CC(N)=O)NC(=O)c1ccc2ccccc2n1` [saquinavir], the “efflux by BCRP” value on BCRP [4] is given as “BCRP also mediates the efflux”.
Turning to Ko143, the “effect of coadministration of Ko143 on influx of AZT into the hippocampus” value at brain BCRP was “markedly increased”. Also, the “effect of incubation with Ko143 on uptake of AZT” value with MDCKII-WT cells is “did not affect”.

The values above are taken from publication PMC7470810 (Acta Pharmacologica Sinica, 2019).
